# Reference: US9676714B2, “Sulfonylindole derivatives and method for preparing the same” (Daewoong Pharmaceutical Co., Ltd., priority 2013, dated 2017)
# Structures can show the parent of a compound that is named as a salt.
# Target: T1, proton pump (H+/K+-ATPase) (Sus scrofa, UniProt P19156)
# T1 construct: Gastric vesicles were prepared from hog stomach via centrifugal separation; from tissue; host or cells: hog stomach (gastric vesicles, method of Rabon et al. 1988)
# Assay: Measurement of inhibitory effects on proton pump (H+/K+-ATPase) activities
# Type: biochemical
# Conditions: hog gastric vesicles, K+-specific H+/K+-ATPase activity, Tris-HCl buffer pH 7.4, 37° C. for 40 minutes, malachite green Pi readout
# In short: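 Hog gastric vesicles in 60 mmol/l Tris-HCl pH 7.4 with 0.5% DMSO were treated with compounds at room temperature; reaction was started with 10 μl of 10 mmol/l ATP stock. Released Pi was read at 570 nm, K+-specific activity taken as the ±K+ difference. IC50 from 4-parameter logistic fit.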
# T1 sequence (P19156 whole entry): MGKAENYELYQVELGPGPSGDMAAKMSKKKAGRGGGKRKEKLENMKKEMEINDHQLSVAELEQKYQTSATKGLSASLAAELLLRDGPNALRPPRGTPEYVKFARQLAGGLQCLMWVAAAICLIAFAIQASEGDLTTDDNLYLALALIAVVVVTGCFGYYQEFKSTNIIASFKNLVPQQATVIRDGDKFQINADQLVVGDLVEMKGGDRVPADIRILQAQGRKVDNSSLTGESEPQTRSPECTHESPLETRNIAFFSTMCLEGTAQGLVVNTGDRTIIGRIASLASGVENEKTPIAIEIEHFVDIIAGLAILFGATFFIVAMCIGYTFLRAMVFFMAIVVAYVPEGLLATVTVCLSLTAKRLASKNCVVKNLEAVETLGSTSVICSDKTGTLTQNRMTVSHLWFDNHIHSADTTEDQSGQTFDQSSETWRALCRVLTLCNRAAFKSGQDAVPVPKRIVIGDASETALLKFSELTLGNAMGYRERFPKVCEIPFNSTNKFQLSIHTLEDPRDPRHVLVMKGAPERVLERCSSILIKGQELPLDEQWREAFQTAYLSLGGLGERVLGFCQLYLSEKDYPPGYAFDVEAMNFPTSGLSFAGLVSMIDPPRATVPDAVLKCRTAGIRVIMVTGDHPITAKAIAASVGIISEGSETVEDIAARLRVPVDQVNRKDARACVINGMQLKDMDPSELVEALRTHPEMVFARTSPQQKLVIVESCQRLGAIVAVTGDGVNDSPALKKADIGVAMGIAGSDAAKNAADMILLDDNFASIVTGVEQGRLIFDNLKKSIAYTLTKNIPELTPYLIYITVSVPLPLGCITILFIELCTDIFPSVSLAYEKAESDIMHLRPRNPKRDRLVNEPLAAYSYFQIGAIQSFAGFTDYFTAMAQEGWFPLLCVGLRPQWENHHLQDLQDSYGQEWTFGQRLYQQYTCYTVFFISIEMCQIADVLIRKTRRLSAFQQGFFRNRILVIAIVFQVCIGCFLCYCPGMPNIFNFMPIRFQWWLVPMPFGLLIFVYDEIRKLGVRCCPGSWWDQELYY
# T1 sequence (P18434 whole entry partner): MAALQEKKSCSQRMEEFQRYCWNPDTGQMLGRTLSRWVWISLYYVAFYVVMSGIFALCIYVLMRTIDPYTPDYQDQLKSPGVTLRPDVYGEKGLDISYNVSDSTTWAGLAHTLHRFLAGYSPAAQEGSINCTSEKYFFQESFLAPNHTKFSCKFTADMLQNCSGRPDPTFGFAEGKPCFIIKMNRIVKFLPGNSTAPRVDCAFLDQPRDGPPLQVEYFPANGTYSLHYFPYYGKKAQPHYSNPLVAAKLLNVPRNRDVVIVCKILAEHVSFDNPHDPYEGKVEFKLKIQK
row,Compound,IC50
1,"CNCc1cn(S(=O)(=O)c2cccnc2)c2cc(Nc3c(F)cnc(F)c3F)ccc12 [Example 134, 3-((methylamino)methyl)-1-(pyridin-3-ylsulfonyl)-N-(2,3,5-trifluoropyridin-4-yl)-1H-indol-6-amine hydrochloride]",2050 nM
2,"CNCc1cn(S(=O)(=O)c2cccc(F)c2)c2cc(Nc3ccc(C)cc3F)ccc12 [Example 136, N-(2-fluoro-4-methylphenyl)-1-((3-fluorophenyl)sulfonyl)-3-((methylamino)methyl)-1H-indol-6-amine hydrochloride]",710 nM
3,"CNCc1cn(S(=O)(=O)c2cccc(F)c2)c2cc(Nc3ccc(C)cc3Cl)ccc12 [Example 137, N-(2-chloro-4-methylphenyl)-1-((3-fluorophenyl)sulfonyl)-3-((methylamino)methyl)-1H-indol-6-amine hydrochloride]",60 nM
4,"CNCc1cn(S(=O)(=O)c2cccc(F)c2)c2cc(Nc3ccc(OC(F)(F)F)cc3C)ccc12 [Example 140, 1-((3-fluorophenyl)sulfonyl)-N-(2-methyl-4-(trifluoromethoxy)phenyl)-3-((methylamino)methyl)-1H-indol-6-amine hydrochloride]",190 nM
5,"CNCc1cn(S(=O)(=O)c2cccc(Cl)c2)c2cc(Nc3ccc(C)cc3F)ccc12 [Example 146, 1-((3-chlorophenyl)sulfonyl)-N-(2-fluoro-4-methylphenyl)-3-((methylamino)methyl)-1H-indol-6-amine hydrochloride]",150 nM
6,"CNCc1cn(S(=O)(=O)c2cccc(Cl)c2)c2cc(Nc3ccc(C)cc3Cl)ccc12 [Example 147, N-(2-chloro-4-methylphenyl)-1-((3-chlorophenyl)sulfonyl)-3-((methylamino)methyl)-1H-indol-6-amine hydrochloride]",90 nM
7,"CNCc1cn(S(=O)(=O)c2cccc(Cl)c2)c2cc(Nc3ccc(F)cc3Cl)ccc12 [Example 149, N-(2-chloro-4-fluorophenyl)-1-((3-chlorophenyl)sulfonyl)-3-((methylamino)methyl)-1H-indol-6-amine hydrochloride]",10 nM
8,"CNCc1cn(S(=O)(=O)c2cccc(Cl)c2)c2cc(Nc3ccc(Cl)cc3F)ccc12 [Example 150, N-(4-chloro-2-fluorophenyl)-1-((3-chlorophenyl)sulfonyl)-3-((methylamino)methyl)-1H-indol-6-amine hydrochloride]",570 nM
9,"CNCc1cn(S(=O)(=O)c2cccc(Cl)c2)c2cc(Nc3ccc(Cl)cc3C(F)(F)F)ccc12 [Example 151, N-(4-chloro-2-(trifluoromethyl)phenyl)-1-((3-chlorophenyl)sulfonyl)-3-((methylamino)methyl)-1H-indol-6-amine hydrochloride]",510 nM
10,"CNCc1cn(S(=O)(=O)c2cccc(Cl)c2)c2cc(Nc3ccc(C(F)(F)F)cc3Cl)ccc12 [Example 152, N-(2-chloro-4-(trifluoromethyl)phenyl)-1-((3-chlorophenyl)sulfonyl)-3-((methylamino)methyl)-1H-indol-6-amine hydrochloride]",350 nM
11,"CNCc1cn(S(=O)(=O)c2cccc(Cl)c2)c2cc(Nc3ccc(OC(F)(F)F)cc3C)ccc12 [Example 154, 1-((3-chlorophenyl)sulfonyl)-N-(2-methyl-4-(trifluoromethoxy)phenyl)-3-((methylamino)methyl)-1H-indol-6-amine hydrochloride]",480 nM
12,"CNCc1cn(S(=O)(=O)c2cccc(Cl)c2)c2cc(Nc3ccc(OC(F)(F)F)cc3F)ccc12 [Example 155, 1-((3-chlorophenyl)sulfonyl)-N-(2-fluoro-4-(trifluoromethoxy)phenyl)-3-((methylamino)methyl)-1H-indol-6-amine hydrochloride]",440 nM
13,"CNCc1cn(S(=O)(=O)c2cccc(Cl)c2)c2cc(Nc3ccc(C)c(F)c3F)ccc12 [Example 156, 1-((3-chlorophenyl)sulfonyl)-N-(2,3-difluoro-4-methylphenyl)-3-((methylamino)methyl)-1H-indol-6-amine hydrochloride]",380 nM
14,"CNCc1cn(S(=O)(=O)c2cccc(Cl)c2)c2cc(Nc3cccnc3OC)ccc12 [Example 157, 1-((3-chlorophenyl)sulfonyl)-N-(2-methoxypyridin-3-yl)-3-((methylamino)methyl)-1H-indol-6-amine hydrochloride]",380 nM
15,"CNCc1cn(S(=O)(=O)c2cccc(Cl)c2)c2cc(Nc3ccc(C)nc3F)ccc12 [Example 158, 1-((3-chlorophenyl)sulfonyl)-N-(2-fluoro-6-methylpyridin-3-yl)-3-((methylamino)methyl)-1H-indol-6-amine hydrochloride]",410 nM
16,"CNCc1cn(S(=O)(=O)c2cccc(OC)c2)c2cc(Nc3ccc(C)cc3F)ccc12 [Example 162, N-(2-fluoro-4-methylphenyl)-1-((3-methoxyphenyl)sulfonyl)-3-((methylamino)methyl)-1H-indol-6-amine hydrochloride]",20 nM
17,"CNCc1cn(S(=O)(=O)c2cccc(OC)c2)c2cc(Nc3ccc(C)cc3Cl)ccc12 [Example 163, N-(2-chloro-4-methylphenyl)-1-((3-methoxyphenyl)sulfonyl)-3-((methylamino)methyl)-1H-indol-6-amine hydrochloride]",140 nM
18,"CNCc1cn(S(=O)(=O)c2cccc(OC)c2)c2cc(Nc3ccc(Cl)cc3F)ccc12 [Example 164, N-(4-chloro-2-fluorophenyl)-1-((3-methoxyphenyl)sulfonyl)-3-((methylamino)methyl)-1H-indol-6-amine hydrochloride]",7060 nM
19,"CNCc1cn(S(=O)(=O)c2cccc(OC)c2)c2cc(Nc3ccc(Cl)cc3C(F)(F)F)ccc12 [Example 165, N-(4-chloro-2-(trifluoromethyl)phenyl)-1-((3-methoxyphenyl)sulfonyl)-3-((methylamino)methyl)-1H-indol-6-amine hydrochloride]",80 nM

# Further lines, results first:
row,IC50,Compound
1,480 nM,"CNCc1cn(S(=O)(=O)c2cccnc2)c2cc(Nc3ccc(Cl)nc3Cl)ccc12 [Example 119, N-(2,6-dichloropyridin-3-yl)-3-((methylamino)methyl)-1-(pyridin-3-ylsulfonyl)-1H-indol-6-amine hydrochloride]"
2,440 nM,"CNCc1cn(S(=O)(=O)c2cccnc2)c2cc(Nc3ccc(Cl)nc3C(F)(F)F)ccc12 [Example 121, N-(6-chloro-2-(trifluoromethyl)pyridin-3-yl)-3-((methylamino)methyl)-1-(pyridin-3-ylsulfonyl)-1H-indol-6-amine hydrochloride]"
3,580 nM,"CNCc1cn(S(=O)(=O)c2cccnc2)c2cc(Nc3ccc(C(F)(F)F)nc3C)ccc12 [Example 124, N-(2-methyl-6-(trifluoromethyl)pyridin-3-yl)-3-((methylamino)methyl)-1-(pyridin-3-ylsulfonyl)-1H-indol-6-amine hydrochloride]"
4,510 nM,"CNCc1cn(S(=O)(=O)c2cccnc2)c2cc(Nc3cc(Cl)cnc3C)ccc12 [Example 126, N-(5-chloro-2-methylpyridin-3-yl)-3-((methylamino)methyl)-1-(pyridin-3-ylsulfonyl)-1H-indol-6-amine hydrochloride]"
5,640 nM,"CNCc1cn(S(=O)(=O)c2cccnc2)c2cc(Nc3c(C)ccnc3Cl)ccc12 [Example 127, N-(2-chloro-4-methylpyridin-3-yl)-3-((methylamino)methyl)-1-(pyridin-3-ylsulfonyl)-1H-indol-6-amine hydrochloride]"
6,1220 nM,"CNCc1cn(S(=O)(=O)c2cccnc2)c2cc(Nc3ccncc3Cl)ccc12 [Example 128, N-(3-chloropyridin-4-yl)-3-((methylamino)methyl)-1-(pyridin-3-ylsulfonyl)-1H-indol-6-amine hydrochloride]"
7,10200 nM,"CNCc1cn(S(=O)(=O)c2cccnc2)c2cc(Nc3ccncc3C(F)(F)F)ccc12 [Example 129, 3-((methylamino)methyl)-1-(pyridin-3-ylsulfonyl)-N-(3-(trifluoromethyl)pyridin-4-yl)-1H-indol-6-amine hydrochloride]"
8,20000 nM,"CNCc1cn(S(=O)(=O)c2cccnc2)c2cc(Nc3ccnc(OC)c3Cl)ccc12 [Example 130, N-(3-chloro-2-methoxypyridin-4-yl)-3-((methylamino)methyl)-1-(pyridin-3-ylsulfonyl)-1H-indol-6-amine hydrochloride]"
9,780 nM,"CNCc1cn(S(=O)(=O)c2cccnc2)c2cc(Nc3ccnc(OC)c3Br)ccc12 [Example 131, N-(3-bromo-2-methoxypyridin-4-yl)-3-((methylamino)methyl)-1-(pyridin-3-ylsulfonyl)-1H-indol-6-amine hydrochloride]"
10,730 nM,"CNCc1cn(S(=O)(=O)c2cccnc2)c2cc(Nc3ccnc(Cl)c3Cl)ccc12 [Example 132, N-(2,3-dichloropyridin-4-yl)-3-((methylamino)methyl)-1-(pyridin-3-ylsulfonyl)-1H-indol-6-amine hydrochloride]"
11,3000 nM,"CNCc1cn(S(=O)(=O)c2cccnc2)c2cc(Nc3ccc4ncccc4c3)ccc12 [Example 135, N-3-((methylamino)methyl)-1-(pyridin-3-ylsulfonyl)-1H-indol-6-yl)quinolin-6-amine hydrochloride]"
12,340 nM,"CNCc1cn(S(=O)(=O)c2cccc(Cl)c2)c2cc(Nc3ccc(Cl)nc3Cl)ccc12 [Example 159, 1-((3-chlorophenyl)sulfonyl)-N-(2,6-dichloropyridin-3-yl)-3-((methylamino)methyl)-1H-indol-6-amine hydrochloride]"
13,460 nM,"CNCc1cn(S(=O)(=O)c2cccc(Cl)c2)c2cc(Nc3ccc(C(F)(F)F)nc3Cl)ccc12 [Example 161, N-(2-chloro-6-(trifluoromethyl)pyridin-3-yl)-1-((3-chlorophenyl)sulfonyl)-3-((methylamino)methyl)-1H-indol-6-amine hydrochloride]"
